Assays:
HDAC = settings: cited from earlier work
primary rat hepatocytes [1] = assay: De novo protein synthesis by [3H]-leucine incorporation; format: cell-based; settings: co-treatment with EGF
Experimental: De novo protein synthesis was determined by [^3H]-leucine incorporation. [^3H]-Leucine (2 μCi/ml final concentration) was added to the hepatocyte cultures 68 hours after plating. Four hours later, cells were washed twice with ice-cold PBS and lyzed in 40% cold trichloroacetic acid. After 2 additional washes in 10% cold trichloroacetic acid, the pellet was solubilized in NaOH (0.1N). The amount of [^3H]-leucine was subsequently measured by liquid scintillation.

primary rat hepatocytes [2] = assay: FACS analysis of cell cycle distribution of primary rat hepatocytes; format: cell-based; settings: 50 μM + EGF; 72 hours
Experimental: Ploidy of hepatocyte nuclei was measured by FACS analysis. After hypotonic swelling of the cells with 0.1% sodium citrate, cellular DNA was stained with propidium iodide (50 μg/ml) and analyzed on a FACStar^Plus (Beckton Dickinson Biosciences, San José, Calif., USA).

cyclin D1 = assay: Western blotting of cyclin D1 in primary rat hepatocytes; format: cell-based; settings: 50 μM; 72 hours
Excerpt: Male outbred Sprague-Dawley rats (200-300 g, Iffa Credo, Brussels, Belgium) were kept under controlled environmental conditions (12-hr light-dark cycle) and fed a standard diet (Animafabo A04, water ad libitum). Hepatocytes were isolated by a two-step collagenase perfusion as described (De Smet et al. In ‘Methods in Molecular Biology, Vol. 107: Cytochrome P450 Protocols’, Philips I R and Shephard E A, eds., pp 295-301, Humana Press, Totowa, 1998). Cell liability was >90% as determined by trypan blue exclusion. Cells (0.4×10^5 cells/cm^2) were plated in MEM/M199 (3:1), containing BSA (1 mg/ml), bovine insulin (10 μg/ml), L-glutamine (2 mM), FBS (10% v/v) and antibiotics (7.3 IU/ml benzyl penicillin, 50 μg/ml streptomycin sulphate, 50 μg/ml kanamycin monosulphstep and 10 μg/ml sodium ampicillin). Four hours after plating, serum-containing medium was removed and fresh serum-free medium was added to the cultures. Culture medium was refreshed daily. […]
Total cell extracts were prepared as described previously (Papeleu et al. J Hepatol 39: 374-382, 2003) and proteins (25 or 50 μg per lane) were separated electrophoretically by SDS-PAGE and electroblotted onto nitrocellulose membranes (Amersham Pharmacia Biotech, Buckinghamshire, UK). […] Proteins were detected using the ECL detection system (Amersham Pharmacia Biotech, Buckinghamshire, UK) according to the manufacturer's recommendations.

ERK1/2 = assay: Western blotting of ERK1/2 phosphorylation in synchronized hepatocytes; format: cell-based, rat; settings: 50 μM + EGF; initial 30 min
Experimental: (§1) Total cell extracts were prepared as described previously (Papeleu et al. J Hepatol 39: 374-382, 2003) and proteins (25 or 50 μg per lane) were separated electrophoretically by SDS-PAGE and electroblotted onto nitrocellulose membranes (Amersham Pharmacia Biotech, Buckinghamshire, UK). Equal sample loading was verified by immersion of the membranes in Ponceau S. Unspecific binding sites were blocked with 5% skim milk/Tris-buffered saline. Incubations with primary antibodies were performed overnight at 4° C. under gentle shaking. Proteins were detected using the ECL detection system (Amersham Pharmacia Biotech, Buckinghamshire, UK) according to the manufacturer's recommendations.
(§2) Early cell cycle events can be triggered by distinct signalling pathways, activated by EGF, namely: the MEK/ERK, the mTOR/p70S6k, and the Pak1 pathways. Eventually, they all converge on cyclin D1 and play thus an essential role in the regulation of this critical cell cycle protein. […] This was done by culturing the hepatocytes in the absence of EGF for 48 hours, consequently stimulating them with EGF and exposing them to 50 μM 4-Me2N-BAVAH for 0.5, 1 and 3 hours before harvesting. Shortly after stimulation of synchronized primary hepatocytes with EGF, a rapid and sustained phosphorylation of ERK1/2 was observed (FIG. 20A). […]

ribosomal S6 subunit = assay: Western blotting of S6 phosphorylation in synchronized hepatocytes; format: cell-based, rat; settings: 50 μM
Experimental: as §1, §2

rat BMSC [3] = assay: DNA synthesis by [methyl-3H] thymidine incorporation in differentiating rat BMSC; format: cell-based
Experimental: [methyl-3H] thymidine (25 μCiμmol, 2 μCi/ml) incorporation into trichloroacetic acid precipitated-DNA (Amersham Inc) was measured.
BMSC were, 24 h after splitting; cultivated in the presence of LSP cytokines, added either as a cocktail or separately on 10 ng/ml FN at 2.465 10^3 cells/cm^2. […] Media were changed every three days. Samples were taken 2, 4, 6, 12 and 18 h after splitting or media change. Cells were stimulated for 2 h before sampling with 2 μCi [methyl-^3H] thymidine (Amersham Pharmacia Biotech)/ml medium. [methyl-^3H] thymidine incorporation was measured using a scintillation counter (Wallac 1410) with a counting efficiency of 62.4%.

rat BMSC [4] = assay: Albumin ELISA, ALB secretion by rat BMSC-derived hepatocyte-like cells; format: cell-based
Experimental: Then, cells were cultivated in the presence of liver-specific (LSP) cytokines either as a cocktail [basal medium+10 ng/ml FGF-4 (fibroblast growth factor type 4), 20 ng/ml HGF (hepatic growth factor) (all from R&D), 1×ITS (insulin, transferrin, selenious acid) and 0.05 μM Dex (dexamethasone) (all from Sigma)] or separately (until day 3: basal medium+10 ng/ml FGF-4; from days 3 to 6: basal medium+20 ng/ml HGF; from day 6 on: basal medium+20 ng/ml HGF+1×ITS and 0.05 μM Dex). […] The culture media were changed every three days.
ALB concentrations secreted into the media were analysed by competitive enzyme-linked immunosorbent assay (ELISA) as described (Koebe et al. Int J Artif Organs 17: 95-106, 1994). The ALB levels were normalized with respect to the media used.

[5] = test system: gap junctional intercellular communication; assay: GJIC scrape loading/dye transfer assay; format: cell-based, rat; settings: 1 μM TSA; from D4 on
Experimental: In all conditions, the hepatocytes were cultivated as a monolayer configuration, and samples were taken at days 1, 4 and 7 (D1, D4, D7) of the cultivation time.
Scrape loading/dye transfer assay was performed as described by el-Fouly et al., 1987: 422-430. In brief, hepatocytes were scraped in the presence of 0.05% m/V Lucifer Yellow and incubated for 5 minutes at 37° C. The dye was then removed, cells were rinsed twice with PBS and fixed with 4% m/V paraformaldehyde. Evaluation was performed by fluorescence microscopy. The distance traveled by Lucifer Yellow from the scrape was used as a parameter to evaluate GJIC functionality.

[6] = 1 μM TSA first from 168 h cultivation on, sequential

CN(C)c1ccc(C(=O)NCCCCC(=O)NO)cc1 [4-Me2N-BAVAH, 5-(4-dimethylaminobenzoyl)-aminovaleric acid hydroxamide]
HDAC inhibition, concentration range (HDAC): micromolar range | de novo protein synthesis (primary rat hepatocytes [1]): not further enhanced | number of cells in G2/M (primary rat hepatocytes [2]): significantly lower | proportion of cells in G0/G1 (primary rat hepatocytes [2]): significantly higher proportion | cyclin D1 protein accumulation upon growth factor stimulation (cyclin D1): completely failed to accumulate cyclin D1 protein | ERK1/2 phosphorylation (ERK1/2): increase in ERK1/2 phosphorylation | S6 phosphorylation (ribosomal S6 subunit): only a minor increase

CC(C=CC(=O)NO)=CC(C)C(=O)c1ccc(N(C)C)cc1 (centres unmarked) [TSA]
cytotoxicity by microscopic analysis (rat BMSC [3]): cytotoxicity | cell death by microscopic analysis (rat BMSC [3]; 1 μM TSA added from 24 and 96 h on, sequential): cell death | [methyl-3H] thymidine incorporation (rat BMSC [3]; [6]): no [methyl-^3H] thymidine incorporation | cell death by microscopic analysis (rat BMSC [3]; [6]): No death cells were observed | DNA synthesis compared with control (sequential without TSA) (rat BMSC [3]; 1 μM TSA from 24, 96 and 168 h on, sequential LSP cytokines): decrease of the DNA synthesis | DNA synthesis compared with control (cocktail-TSA) (rat BMSC [3]; 1 μM TSA from 24 and 96 h of cultivation on, cocktail of LSP cytokines): increase of the DNA synthesis | cell death by microscopic analysis (rat BMSC [3]; 1 μM TSA from 168 h, cocktail, day 7): no cell death had occurred | [methyl-3H] thymidine incorporation (DNA synthesis) (rat BMSC [3]; 5 and 25 μM TSA): no incorporation | [methyl-3H] thymidine incorporation (rat BMSC [3]; first addition of 1 μM TSA from 168 h of cultivation on, cocktail): no [methyl-^3H] thymidine | cell death (rat BMSC [4]; cocktail of LSP cytokines + TSA, from day 16 on): cell death had occurred | increase of the ALB secretion from day 15 to 17 (rat BMSC [4]; sequential cytokines + 1 μM TSA): 2.5 fold | ALB secretion (rat BMSC [4]; sequential cytokines + 1 μM TSA, from day 15 on): significantly upregulated | GJIC activity [5]: increases GJIC activity
